Experiments:
cancer cell lines = settings: cited from earlier work
polyamine transporter = settings: vs longer polyamines such as spermine and spermidine; cited from earlier work
[1] = tested on: prostatic carcinoma cells; settings: cited from earlier work
HL-60 (TB) cells = assay: cells; type: cell-based; settings: Homo sapiens, leukemia, 48 hr, read-out: log10 G150 (converted)
SNB-19 cells = assay: In vitro cytotoxicity / cell growth inhibition, CNS cancer; type: cell-based; settings: Homo sapiens; SNB-19, CNS cancer, 48 hr; read-out: log10 G150 (converted)
Experimental: (§1) The anti-proliferative activities of the aziridinylpolyamines obtained in Synthesis Examples 1-4 were assessed by determining log10 G150 values against human cancer cell lines using the screening strategy described by Boyd et al, Drug Devel. Res. 34:91-109 (1995).
(§2) More specifically, the compounds were tested at a minimum of five concentrations at 10-fold dilutions using a 48 hr continuous exposure protocol. Each cell line shown in Table 1 below was inoculated onto microtiter plates. After a pre-incubation period of 24-48 hr at 37° C., the test compounds were added, and the culture was incubated for an additional 48 hr at 37° C. Cell viability or cell growth end-point determinations were performed by fixation of the cells, followed by staining with sulforhodamine B (Monks et al, J. Natl. Cancer Inst., 83:757-766 (1991)).

U251 cells = assay: as above; type: cell-based; settings: Homo sapiens, U-251, 48 hr, read-out: log10 G150 (converted)
Experimental: as §1, §2

SF-295 cells = assay: as above; type: cell-based; settings: Homo sapiens; SF-295, CNS cancer, 48 hr; read-out: log10 G150 (converted)
Experimental: as §1, §2

SF-268 cells = assay: as above; type: cell-based; settings: Homo sapiens; SF-268, CNS cancer, 48 hr; read-out: log10 G150 (converted)
Experimental: as §1, §2

SNB-75 cells = assay: as above; type: cell-based; settings: Homo sapiens; SNB-75, CNS cancer, 48 hr; read-out: log10 G150 (converted)
Experimental: as §1, §2

SF-539 cells = assay: as above; type: cell-based; settings: Homo sapiens; SF-539, CNS cancer, 48 hr; read-out: log10 G150 (converted)
Experimental: as §1, §2

786-0 cells = assay: In vitro cytotoxicity / cell growth inhibition, renal cancer; type: cell-based; settings: Homo sapiens; 786-0, renal cancer, 48 hr; read-out: log10 G150 (converted)
Experimental: as §1, §2

CAKI-1 cells = assay: as above; type: cell-based; settings: Homo sapiens; CAKI-1, renal cancer, 48 hr; read-out: log10 G150 (converted)
Experimental: as §1, §2

A498 cells = assay: as above; type: cell-based; settings: Homo sapiens, 48 hr, read-out: log10 G150 (converted)
Experimental: as §1, §2

RXF-393 cells = assay: as above; type: cell-based; settings: Homo sapiens; RXF-393, renal cancer, 48 hr; read-out: log10 G150 (converted)
Experimental: as §1, §2

TK-10 cells = assay: as above; type: cell-based; settings: Homo sapiens; TK-10, renal cancer, 48 hr; read-out: log10 G150 (converted)
Experimental: as §1, §2

SN12C cells = assay: as above; type: cell-based; settings: Homo sapiens, 48 hr, read-out: log10 G150 (converted)
Experimental: as §1, §2

UO-31 cells = assay: as above; type: cell-based; settings: Homo sapiens; UO-31, renal cancer, 48 hr; read-out: log10 G150 (converted)
Experimental: as §1, §2

ACHN cells = assay: as above; type: cell-based; settings: Homo sapiens, 48 hr, read-out: log10 G150 (converted)
Experimental: as §1, §2

MOLT-4 cells = assay: In vitro cytotoxicity / cell growth inhibition, leukemia; type: cell-based; settings: Homo sapiens; MOLT-4, leukemia, 48 hr; read-out: log10 G150 (converted)
Experimental: as §1, §2

SR cells = assay: as above; type: cell-based; settings: Homo sapiens, 48 hr, read-out: log10 G150 (converted)
Experimental: as §1, §2

RPMI-8226 cells = assay: as above; type: cell-based; settings: Homo sapiens; RPMI-8226, leukemia, 48 hr; read-out: log10 G150 (converted)
Experimental: as §1, §2

CCRF-CEN cells = assay: as above; type: cell-based; settings: Homo sapiens, 48 hr, read-out: log10 G150 (converted)
Experimental: as §1, §2

K-562 cells = assay: as above; type: cell-based; settings: Homo sapiens, K562; K-562, leukemia, 48 hr; read-out: log10 G150 (converted)
Experimental: as §1, §2

COLO 205 cells = assay: In vitro cytotoxicity / cell growth inhibition, colon cancer; type: cell-based; settings: Homo sapiens; COLO 205, colon cancer, 48 hr; read-out: log10 G150 (converted)
Experimental: as §1, §2

HCT-116 cells = assay: as above; type: cell-based; settings: Homo sapiens; HCT-116, colon cancer, 48 hr; read-out: log10 G150 (converted)
Experimental: as §1, §2

HCC-2998 cells = assay: as above; type: cell-based; settings: Homo sapiens; HCC-2998, colon cancer, 48 hr; read-out: log10 G150 (converted)
Experimental: as §1, §2

HCT-15 cells = assay: as above; type: cell-based; settings: Homo sapiens; HCT-15, colon cancer, 48 hr; read-out: log10 G150 (converted)
Experimental: as §1, §2

SW-620 cells = assay: as above; type: cell-based; settings: Homo sapiens; SW-620, colon cancer, 48 hr; read-out: log10 G150 (converted)
Experimental: as §1, §2

KM12 cells = assay: as above; type: cell-based; settings: Homo sapiens, 48 hr, read-out: log10 G150 (converted)
Experimental: as §1, §2

HT29 cells = assay: as above; type: cell-based; settings: Homo sapiens, HT-29, 48 hr, read-out: log10 G150 (converted)
Experimental: as §1, §2

NCl-H322M cells = assay: In vitro cytotoxicity / cell growth inhibition, non-small cell lung cancer; type: cell-based; settings: Homo sapiens, 48 hr, read-out: log10 G150 (converted)
Experimental: as §1, §2

NCl-H522 cells = assay: as above; type: cell-based; settings: Homo sapiens, 48 hr, read-out: log10 G150 (converted)
Experimental: as §1, §2

A549/ATCC cells = assay: as above; type: cell-based; settings: Homo sapiens, 48 hr, read-out: log10 G150 (converted)
Experimental: as §1, §2

NCl-H460 cells = assay: as above; type: cell-based; settings: Homo sapiens, 48 hr, read-out: log10 G150 (converted)
Experimental: as §1, §2

HOP-92 cells = assay: as above; type: cell-based; settings: Homo sapiens; HOP-92, non-small cell lung cancer, 48 hr; read-out: log10 G150 (converted)
Experimental: as §1, §2

NCl-H226 cells = assay: as above; type: cell-based; settings: Homo sapiens, 48 hr, read-out: log10 G150 (converted)
Experimental: as §1, §2

EKVX cells = assay: as above; type: cell-based; settings: Homo sapiens, 48 hr, read-out: log10 G150 (converted)
Experimental: as §1, §2

HOP-62 cells = assay: as above; type: cell-based; settings: Homo sapiens; HOP-62, non-small cell lung cancer, 48 hr; read-out: log10 G150 (converted)
Experimental: as §1, §2

NCl-H23 cells = assay: as above; type: cell-based; settings: Homo sapiens, 48 hr, read-out: log10 G150 (converted)
Experimental: as §1, §2

[2] = relative to level predicted from in vitro studies; cited from earlier work
cells = settings: suggested by the biological activity profile; cited from earlier work
DNA = settings: compared with chlorambucil per se; cited from earlier work

| Structure (SMILES) | GI50 (HL-60 (TB) cells) | GI50 (SNB-19 cells) | GI50 (U251 cells) | GI50 (SF-295 cells) | GI50 (SF-268 cells) | GI50 (SNB-75 cells) | GI50 (SF-539 cells) | GI50 (786-0 cells) | GI50 (CAKI-1 cells) | GI50 (A498 cells) | GI50 (RXF-393 cells) | GI50 (TK-10 cells) | GI50 (SN12C cells) | GI50 (UO-31 cells) | GI50 (ACHN cells) | GI50 (MOLT-4 cells) | GI50 (SR cells) | GI50 (RPMI-8226 cells) | GI50 (CCRF-CEN cells) | GI50 (K-562 cells) | other results |
| --- | --- | --- | --- | --- | --- | --- | --- | --- | --- | --- | --- | --- | --- | --- | --- | --- | --- | --- | --- | --- | --- |
| NCCCCNCCCN1CC1 [N-(3-aziridinylpropyl)-1,4-diaminobutane] | – | – | – | – | – | – | – | – | – | – | – | – | – | – | – | – | – | – | – | – | cytotoxicity against a variety of cancer cell lines (cancer cell lines): cytotoxic against a variety of cancer cell lines in submicromolar concentrations |
| NCCCCN1CC1 [N-(4-aminobutyl)aziridine] | – | – | – | – | – | – | – | – | – | – | – | – | – | – | – | – | – | – | – | – | effectiveness as substrate for the polyamine transporter (polyamine transporter): less effective as a substrate for the polyamine transporter than the longer polyamines; cytotoxicity against prostatic carcinoma cells [1]: cytotoxic against prostatic carcinoma cells |
| NCCCNCCCCN1CC1 [N-(4-aziridinylbutyl)-1,3-diaminopropane] | – | – | – | – | – | – | – | – | – | – | – | – | – | – | – | – | – | – | – | – | cytotoxicity against a variety of cancer cell lines (cancer cell lines): cytotoxic against a variety of cancer cell lines in submicromolar concentrations |
| C(CNCCCN1CC1)CNCCCN1CC1 [Synthesis Example 2, 1,11-Diaziridinyl-4,8-diazaundecane] | 2.69 µM | 18.2 µM | 6.92 µM | 14.5 µM | 10.7 µM | 3.98 µM | 11.2 µM | 3.39 µM | 4.07 µM | 28.2 µM | 3.89 µM | 14.5 µM | 6.76 µM | 17 µM | 3.89 µM | 3.09 µM | 3.09 µM | 22.4 µM | 3.72 µM | 19.5 µM | GI50 (COLO 205 cells): 13.2 µM; GI50 (HCT-116 cells): 19.5 µM; GI50 (HCC-2998 cells): 20.4 µM; GI50 (HCT-15 cells): 21.9 µM; GI50 (SW-620 cells): 26.3 µM; GI50 (KM12 cells): 19.5 µM; GI50 (HT29 cells): 18.6 µM; GI50 (NCl-H322M cells): 36.3 µM; GI50 (NCl-H522 cells): 11.2 µM; GI50 (A549/ATCC cells): 13.2 µM; GI50 (NCl-H460 cells): 2.95 µM; GI50 (HOP-92 cells): 11.2 µM; GI50 (NCl-H226 cells): 18.6 µM; GI50 (EKVX cells): 25.1 µM; GI50 (HOP-62 cells): 6.31 µM; GI50 (NCl-H23 cells): 10.7 µM |
| CC(CCNCCCCNCCC(C)N1CC1)N1CC1 (stereo not shown) [Synthesis Example 3, 2,13-Diaziridinyl-5,10-diazatetradecane] | 3.31 µM | 26.3 µM | 15.8 µM | 24 µM | 14.5 µM | 3.39 µM | 6.31 µM | 3.8 µM | 5.01 µM | 69.2 µM | 15.1 µM | > 100 µM | 9.55 µM | 35.5 µM | 5.75 µM | 3.24 µM | 3.63 µM | 27.5 µM | 4.79 µM | 21.4 µM | GI50 (COLO 205 cells): 14.8 µM; GI50 (HCT-116 cells): 26.3 µM; GI50 (HCC-2998 cells): 55 µM; GI50 (HCT-15 cells): 41.7 µM; GI50 (SW-620 cells): 22.4 µM; GI50 (KM12 cells): 81.3 µM; GI50 (HT29 cells): 20 µM; GI50 (NCl-H322M cells): 63.1 µM; GI50 (NCl-H522 cells): 12.6 µM; GI50 (A549/ATCC cells): 29.5 µM; GI50 (NCl-H460 cells): 6.17 µM; GI50 (HOP-92 cells): 19.1 µM; GI50 (NCl-H226 cells): 23.4 µM; GI50 (EKVX cells): 30.9 µM; GI50 (HOP-62 cells): 30.9 µM; GI50 (NCl-H23 cells): 13.2 µM |
| CC1CN1CCCNCCCCNCCCN1CC1C (stereo not shown) [Synthesis Example 4, 1,12-Di-(2-methyl-1-aziridinyl)-4,9-diazadodecane] | 2.95 µM | 25.7 µM | 13.2 µM | 47.9 µM | 20.4 µM | 2.34 µM | 12.9 µM | 4.47 µM | 3.47 µM | > 100 µM | 11 µM | 11.7 µM | 9.77 µM | 17.4 µM | 19.1 µM | 2.95 µM | 4.9 µM | 31.6 µM | 3.98 µM | 29.5 µM | GI50 (COLO 205 cells): 10 µM; GI50 (HCT-116 cells): 20.9 µM; GI50 (HCC-2998 cells): 19.1 µM; GI50 (HCT-15 cells): > 100 µM; GI50 (SW-620 cells): 41.7 µM; GI50 (KM12 cells): 64.6 µM; GI50 (HT29 cells): 20.4 µM; GI50 (NCl-H322M cells): 91.2 µM; GI50 (NCl-H522 cells): 7.24 µM; GI50 (A549/ATCC cells): 18.2 µM; GI50 (NCl-H460 cells): 9.12 µM; GI50 (HOP-92 cells): 14.5 µM; GI50 (NCl-H226 cells): 19.1 µM; GI50 (EKVX cells): 32.4 µM; GI50 (HOP-62 cells): 10.7 µM; GI50 (NCl-H23 cells): 8.71 µM |
| NCCCCN(CCCN)CCCNC(=O)CCCc1ccc(N(CCCl)CCCl)cc1 [chlorambucil-spermidine conjugate] | – | – | – | – | – | – | – | – | – | – | – | – | – | – | – | – | – | – | – | – | in vivo potency [2]: in vivo potency does not reach the level predicted from in vitro studies; uptake by cells (cells): not taken up well by cells; production of DNA cross-links (DNA): highly efficient at producing DNA cross-links compared with chlorambucil per se |

Source: patent publication US5612329A (priority 1995, dated 1997)
